Assay [1] has as its system H1581 lung cancer cells (FGFR1 gene amplification). Briefly: Cell proliferation assay (Cell Titer Glo), H1581. Format: cell-based. As to conditions: 3 days, CTG, read-out: Cellular IC50 (nM) H1581. How it is done:
(§1) II. Cell Proliferation Assay (Cell Titer Glo(CTG) Assay)
(§2) The FGFR signal pathway dependent inhibitory effect of the compound in the present invention on cell proliferation was assessed by survival test using CTG reagent (Promega, 4G7573). Cell lines representative of a variety of tumor types, including H1581 lung cancer cells (FGFR1 gene amplification), Snu-16 gastric cancer cells (FGFR2 gene amplification), and RT112 bladder carcinoma cells (FGFR3-TACC3 fusion) from Nanjing Cobioer Biosciences, were selected for the assay. The specific experimental procedure was as follows: • 1. 90 μL of cells were seeded into a 96-well plate processed with TCM (Costar 43904), and incubated overnight at 37° C. in a 5% CO2 incubator; afterwards, 10 μL of the culture medium containing the compound at 10 fold of its final concentration was added; • 2. The dose-dependent effect was evaluated by a serial dilution of the test compound, starting from 10 μM or a lower concentration. • 3. The cells were incubated at 37° C. under 5% C02 for 3 days, then added 50 μL CTG, and read the data with Envision (Pelkin Elmer) to quantify the ATP level in the cells. The ATP levels in cells with treatment of inhibitor at a variety of concentrations were compared with those in cells of the control group (in which DMSO was added into the medium) to evaluate the compound percent inhibition of cell proliferation/survival. • 4. The compound half growth inhibitory concentration (IC50) was determined in Graphpad Prism by 4-parameter curve fitting.

For assay [2], the target named is FGFR1 (Homo sapiens (Human), UniProt P11362). Briefly: In vitro biochemical kinase assay (Caliper Assay), FGFR1. As to conditions: enzyme 0.25 nM, ATP 382 μM, 20 minutes; read-out: Enzymatic activity IC50(nM) FGFR1. As to the method: (§3) I. In Vitro Biochemical Kinase Assay of FGFR 1˜3
(§4) Caliper Assay was used in the present invention to determine the inhibitory activities of the compounds against FGFR1, FGFR2, and FGFR3. The specific experimental procedure was as follows: • 1. The kinase reaction in the present invention was carried out in 384-well plates, the kinase(Carna) at a certain concentration and ATP at a certain concentration and 1 μM of peptide FAM-P22 (GL Biochem, Cat. No. 112393)) was incubated to react for a certain time at 28° C. in a reaction system consisting of 50 mM HEPES, […], 0.0015% Brij-35 and basic kinase buffer; for FGFR1, the enzyme concentration was 0.25 nM and ATP concentration was 382 μM and the reaction time was 20 minutes; for FGFR2, the enzyme concentration was 2.5 nM, ATP concentration was 1 μM, and the reaction time was 40 minutes; for FGFR3, the enzyme concentration was 8 nM, ATP concentration was 4.7 μM, and the reaction time was 30 minutes: • 2. The reaction was terminated with a stop solution (100 mM HEPES, pH 7.5, 0.2% Caliper coating, reagent, 50 mM EDTA and 0.015% Brij35); • 3. The plate with the terminated kinase reaction was transferred to the Caliper workstation to read the data; • 4. the phosphorylated and unphosphorylated peptides were separated by the Caliper microfluid migration shift technique, and the analyte was transferred by a constant buffer flow through the chip, the migration of the substrate peptide was monitored by the labeled fluorescent signal, and the kinase activity was calculated by the amount of the phosphate-based peptide formed. • 5. IC50 was determined by non-linear regression analysis of percent inhibition at different concentration level of the compound.

Assay [3] has as its system Snu-16 gastric cancer cells (FGFR2 gene amplification). Briefly: Cell proliferation assay (Cell Titer Glo), Snu-16. Format: cell-based. As to conditions: Homo sapiens, SNU-16, 72 h, Snu-16 cells, 3 days, CTG, read-out: Cellular IC50 (nM) Sun16. As to the method: as §1, §2
For assay [4], the target named is FGFR2 (Homo sapiens (Human), UniProt P21802). Briefly: In vitro biochemical kinase assay (Caliper Assay), FGFR2. As to conditions: enzyme 2.5 nM, ATP 1 μM, 40 minutes; read-out: Enzymatic activity IC50(nM) FGFR2. How it is done: as §3, §4
For assay [5], the system named is RT112 bladder carcinoma cells (FGFR3-TACC3 fusion). Briefly: Cell proliferation assay (Cell Titer Glo), RT112. Format: cell-based. As to conditions: Homo sapiens, RT-112, 72 h, 3 days, CTG, read-out: Cellular IC50 (nM) RT112. How it is done:
as §1, §2

Assay [6] concerns the target FGFR3 (Homo sapiens (Human), UniProt P22607). Briefly: In vitro biochemical kinase assay (Caliper Assay), FGFR3. As to conditions: enzyme 8 nM, ATP 4.7 μM, 30 minutes; read-out: Enzymatic activity IC50(nM) FGFR3. How it is done: as §3, §4

We go through eight molecules from patent US12351576B2, “FGFR inhibitor, preparation method therefor and application thereof” (Abbisko Therapeutics Co., Ltd., priority 2018, dated 2025).

Where two headings read alike, the source gives them in different places.

Chain of FGFR1 (P11362 22-822): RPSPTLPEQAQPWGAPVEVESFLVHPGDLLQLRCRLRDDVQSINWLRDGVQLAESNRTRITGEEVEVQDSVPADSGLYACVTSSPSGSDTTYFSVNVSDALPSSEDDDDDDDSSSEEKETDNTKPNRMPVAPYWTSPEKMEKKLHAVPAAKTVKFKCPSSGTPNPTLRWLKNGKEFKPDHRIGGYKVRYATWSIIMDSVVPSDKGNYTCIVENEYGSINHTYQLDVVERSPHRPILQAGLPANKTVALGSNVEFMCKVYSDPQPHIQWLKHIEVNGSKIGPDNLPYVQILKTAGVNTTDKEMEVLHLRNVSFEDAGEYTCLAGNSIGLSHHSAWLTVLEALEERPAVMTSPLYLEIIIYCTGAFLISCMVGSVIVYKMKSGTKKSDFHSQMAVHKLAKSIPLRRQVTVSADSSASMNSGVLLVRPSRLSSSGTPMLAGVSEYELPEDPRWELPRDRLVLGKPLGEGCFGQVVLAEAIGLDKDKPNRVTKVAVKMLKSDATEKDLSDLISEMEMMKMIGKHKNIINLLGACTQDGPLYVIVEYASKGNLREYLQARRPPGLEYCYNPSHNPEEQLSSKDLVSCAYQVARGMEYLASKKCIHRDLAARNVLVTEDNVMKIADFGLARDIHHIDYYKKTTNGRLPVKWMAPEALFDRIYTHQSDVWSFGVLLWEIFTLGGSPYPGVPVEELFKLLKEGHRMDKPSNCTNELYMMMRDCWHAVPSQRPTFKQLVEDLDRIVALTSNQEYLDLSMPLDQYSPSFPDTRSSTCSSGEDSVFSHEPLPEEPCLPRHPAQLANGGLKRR
Chain of FGFR2 (P21802 22-821): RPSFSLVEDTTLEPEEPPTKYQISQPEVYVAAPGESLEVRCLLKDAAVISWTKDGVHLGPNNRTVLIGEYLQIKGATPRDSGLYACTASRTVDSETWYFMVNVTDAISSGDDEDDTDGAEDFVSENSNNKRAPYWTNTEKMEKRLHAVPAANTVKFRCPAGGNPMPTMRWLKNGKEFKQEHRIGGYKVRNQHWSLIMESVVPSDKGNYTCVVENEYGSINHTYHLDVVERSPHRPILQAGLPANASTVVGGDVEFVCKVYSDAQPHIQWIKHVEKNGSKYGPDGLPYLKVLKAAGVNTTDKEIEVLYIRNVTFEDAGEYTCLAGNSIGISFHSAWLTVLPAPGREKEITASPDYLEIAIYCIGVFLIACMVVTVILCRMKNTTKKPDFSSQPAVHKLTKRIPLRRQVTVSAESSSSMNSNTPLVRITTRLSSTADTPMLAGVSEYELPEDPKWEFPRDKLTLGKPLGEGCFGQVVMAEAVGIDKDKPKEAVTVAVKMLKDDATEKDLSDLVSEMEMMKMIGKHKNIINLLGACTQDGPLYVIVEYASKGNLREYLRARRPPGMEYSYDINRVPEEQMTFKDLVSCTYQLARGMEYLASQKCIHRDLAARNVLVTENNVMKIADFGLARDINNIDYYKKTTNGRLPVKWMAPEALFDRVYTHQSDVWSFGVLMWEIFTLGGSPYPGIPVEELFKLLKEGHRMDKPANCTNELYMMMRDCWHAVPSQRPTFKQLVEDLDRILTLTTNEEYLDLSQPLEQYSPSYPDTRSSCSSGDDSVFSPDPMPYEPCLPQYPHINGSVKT
Chain of FGFR3 (P22607 23-806): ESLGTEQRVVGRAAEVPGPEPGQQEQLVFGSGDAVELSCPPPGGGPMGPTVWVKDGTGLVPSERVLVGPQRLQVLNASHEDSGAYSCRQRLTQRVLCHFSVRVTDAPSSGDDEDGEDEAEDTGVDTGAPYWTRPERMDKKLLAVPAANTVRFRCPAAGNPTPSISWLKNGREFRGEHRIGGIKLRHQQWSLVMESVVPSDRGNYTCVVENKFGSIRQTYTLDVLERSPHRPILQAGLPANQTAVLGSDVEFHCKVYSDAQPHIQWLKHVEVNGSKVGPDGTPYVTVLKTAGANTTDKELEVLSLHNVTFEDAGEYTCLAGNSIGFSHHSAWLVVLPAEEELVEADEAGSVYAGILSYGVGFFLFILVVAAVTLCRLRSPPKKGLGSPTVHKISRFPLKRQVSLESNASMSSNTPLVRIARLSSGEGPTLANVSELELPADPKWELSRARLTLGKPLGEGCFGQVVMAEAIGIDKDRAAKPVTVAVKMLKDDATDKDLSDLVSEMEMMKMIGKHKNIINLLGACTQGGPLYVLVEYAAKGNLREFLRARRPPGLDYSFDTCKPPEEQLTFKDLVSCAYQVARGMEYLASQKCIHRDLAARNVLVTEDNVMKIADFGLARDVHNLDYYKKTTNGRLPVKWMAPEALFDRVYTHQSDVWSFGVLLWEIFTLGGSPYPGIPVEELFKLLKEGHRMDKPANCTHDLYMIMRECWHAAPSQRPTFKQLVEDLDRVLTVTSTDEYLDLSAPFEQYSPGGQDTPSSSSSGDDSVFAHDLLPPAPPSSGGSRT

Turning to `COc1cc(OC)c(F)c(-c2cc3cnc(-c4ccc(C5(C#N)CCC5)nc4)cc3n(C3CCOC3)c2=O)c1F` (centres unmarked) [Example 32, 1-(5-(3-(2,6-difluoro-3,5-dimethoxyphenyl)-2-oxo-1-(tetrahydrofuran-3-yl)-1,2-dihydro-1,6-naphthyridin-7-yl)pyridin-2-yl)cyclobutane-1-carbonitrile], the IC50 in assay [1] (Homo sapiens, NCI-H1581, 72 h) was 50 to 500 nM; in assay [2] it was 5 to 10 nM; in assay [3] (numeric values) it was 10.7 nM; in assay [4], at most 5 nM; in assay [5] (numeric values), 2.5 nM.
In the case of `COc1cc(OC)c(Cl)c(-c2cc3cnc(-c4cnn(CCN5CCOCC5)c4)cc3n(C3CCOC3)c2=O)c1Cl` (centres unmarked) [Example 18, 3-(2,6-dichloro-3,5-dimethoxyphenyl)-7-(1-(2-morpholinoethyl)-1H-pyrazol-4-yl)-1-(tetrahydrofuran-3-yl)-1,6-naphthyridin-2(1H)-one], the IC50 in assay [1] (Homo sapiens, NCI-H1581, 72 h) was 50 to 500 nM; in assay [3] (numeric values) it was 6 nM; in assay [5] (numeric values), 4.1 nM.
Consider `COc1cc(OC)c(Cl)c(-c2cc3cnc(-c4cnn(CCN5CCOCC5)c4)cc3n(C)c2=O)c1Cl` [Example 15, 3-(2,6-dichloro-3,5-dimethoxyphenyl)-1-methyl-7-(1-(2-morpholinoethyl)-1H-pyrazol-4-yl)-1,6-naphthyridin-2(1H)-one], for which the IC50 in assay [1] (Homo sapiens, NCI-H1581, 72 h) is 50 to 500 nM; in assay [2], 50 to 500 nM; in assay [3], 10 to 50 nM; in assay [6], 50 to 500 nM; in assay [4], 5 to 10 nM; in assay [5], 50 to 500 nM.
`COc1cc(OC)c(F)c(-c2cc3cnc(-c4cnn(C)c4)cc3n(C3CCOC3)c2=O)c1F` (centres unmarked) [Example 28, 3-(2,6-difluoro-3,5-dimethoxyphenyl)-7-(1-methyl-1H-pyrazol-4-yl)-1-(tetrahydrofuran-3-yl)-1,6-naphthyridin-2(1H)-one]: the IC50 in assay [1] (Homo sapiens, NCI-H1581, 72 h) was 10 to 50 nM; in assay [2], at most 5 nM; in assay [3] it was at most 5 nM; in assay [4], at most 5 nM; in assay [5], at most 5 nM.
`CCn1c(=O)c(-c2c(Cl)c(OC)cc(OC)c2Cl)cc2cnc(-c3cnn(CCN4CCOCC4)c3)cc21` [Example 10, 3-(2,6-dichloro-3,5-dimethoxyphenyl)-1-ethyl-7-(1-(2-morpholinoethyl)-1H-pyrazol-4-yl)-1,6-naphthyridin-2(1H)-one]: the IC50 was 50 to 500 nM in assay [1] (Homo sapiens, NCI-H1581, 72 h); 10 to 50 nM in assay [2]; 10 to 50 nM in assay [3]; at most 5 nM in assay [6]; at most 5 nM in assay [4]; 10 to 50 nM in assay [5].
Take `COc1cc(OC)c(Cl)c(-c2cc3cnc(-c4ccc(C5(C#N)CCC5)nc4)cc3n(C3CCOC3)c2=O)c1Cl` (centres unmarked) [Example 16, 1-(5-(3-(2,6-dichloro-3,5-dimethoxyphenyl)-2-oxo-1-(tetrahydrofuran-3-yl)-1,2-dihydro-1,6-naphthyridin-7-yl)pyridin-2-yl)cyclobutane-1-carbonitrile]: the IC50 in assay [1] (Homo sapiens, NCI-H1581, 72 h) lay within 50 to 500 nM; in assay [2], 50 to 500 nM; in assay [3], 10 to 50 nM; in assay [4] it was 10 to 50 nM; in assay [5], 50 to 500 nM.
On to `COc1cc(OC)c(Cl)c(-c2cc3cnc(-c4cnn(C)c4)cc3n(C3CCOC3)c2=O)c1Cl` (stereo in doubt) [Example 21, (R)-3-(2,6-dichloro-3,5-dimethoxyphenyl)-7-(1-methyl-1H-pyrazol-4-yl)-1-(tetrahydrofuran-3-yl)-1,6-naphthyridin-2(1H)-one], for which the IC50 was 50 to 500 nM in assay [1]; 5 to 10 nM in assay [2]; 5 to 10 nM in assay [3]; at most 5 nM in assay [6]; at most 5 nM in assay [4].
Consider `COc1cc(OC)c(Cl)c(-c2cc3cnc(-c4cnn(C)c4)cc3n(C)c2=O)c1Cl` [Example 2, 3-(2,6-dichloro-3,5-dimethoxyphenyl)-1-methyl-7-(1-methyl-1H-pyrazol-4-yl)-1,6-naphthyridin-2(1H)-one], for which the IC50 in assay [1] (Homo sapiens, NCI-H1581, 72 h) was 50 to 500 nM; in assay [2] it was 10 to 50 nM; in assay [3], 10 to 50 nM; in assay [6], 50 to 500 nM; in assay [4], 5 to 10 nM; in assay [5], 50 to 500 nM.
